Patent US12156876B2, “Formulations of influenza therapeutics” (priority 2018, dated 2024)
pEC50: −log10 of the molar value.

Columns and labels:
influenza = experiment: anti-influenza potency; format: cell-based
[1] = BALB/C, mouse, in vivo

In the case of `O=C(O)C1C2CCC(CC2)C1n1cc(F)c2cnc(-c3c[nH]c4ncc(Cl)cc34)nc21` (centres unmarked) [Compound 1, 3-(2-(5-chloro-1H-pyrrolo[2,3-b]pyridin-3-yl)-5-fluoro-7H-pyrrolo[2,3-d]pyrimidin-7-yl)bicyclo[2.2.2]octane-2-carboxylic acid], the pEC50 (influenza) was 8.52 to 10.00 and the “drug level excess of the therapeutic dose (anti-influenza potency EC50)” value [1] was “at least 100 fold”.
